# Test system: SYO-1 complex spheroid growth, percent test/control
# Test: Anticancer human tumor SYO-1 cell line growth inhibition [Asc];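 also: compound exposure lasted 7 days after spheroids grew 3 days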;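 as to viability, T/C: 100% = DMSO vehicle control viability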
# Conditions: for IC50: curve of first compound; for viability, T/C: stronger effect = lower value
# Procedure, shortened: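 Tumor cells were grown as multicellular spheroids with stromal HUVEC and mesenchymal stem cells and treated singly or in combination. Concentrations fell in half-log steps from the clinical Cmax, or from 10 microM where none was known.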
smiles,measurement,setting,value
NC(=O)C(=Cn1cnc(-c2cc(C(F)(F)F)cc(C(F)(F)F)c2)n1)c1cncnc1 + CNC(C)C(=O)NC1CN(S(=O)(=O)c2cccc(S(=O)(=O)N3CCC4CCC(C(=O)NC(c5ccccc5)c5ccccc5)N4C(=O)C(NC(=O)C(C)NC)C3)c2)CCC2CCC(C(=O)NC(c3ccccc3)c3ccccc3)N2C1=O,IC50,second compound 0.01 µM,0.281 µM
same,IC50,second compound 0.0316 µM,0.29 µM
same,IC50,second compound 0.1 µM,0.26 µM
same,IC50,second compound 0.316 µM,0.238 µM
same,IC50,second compound 1 µM,0.199 µM
same,"viability, T/C","second compound 0.01 µM, first compound 0.000949 µM",102%
same,"viability, T/C","second compound 0.01 µM, first compound 0.003 µM",101%
same,"viability, T/C","second compound 0.01 µM, first compound 0.00949 µM",111%
same,"viability, T/C","second compound 0.01 µM, first compound 0.03 µM",104%
same,"viability, T/C","second compound 0.01 µM, first compound 0.0949 µM",98%
same,"viability, T/C","second compound 0.01 µM, first compound 0.3 µM",47.1%
same,"viability, T/C","second compound 0.0316 µM, first compound 0.000949 µM",99.2%
same,"viability, T/C","second compound 0.0316 µM, first compound 0.003 µM",105%
same,"viability, T/C","second compound 0.0316 µM, first compound 0.00949 µM",106%
same,"viability, T/C","second compound 0.0316 µM, first compound 0.03 µM",108%
same,"viability, T/C","second compound 0.0316 µM, first compound 0.0949 µM",102%
same,"viability, T/C","second compound 0.0316 µM, first compound 0.3 µM",48.4%
same,"viability, T/C","second compound 0.1 µM, first compound 0.000949 µM",109%
same,"viability, T/C","second compound 0.1 µM, first compound 0.003 µM",106%
same,"viability, T/C","second compound 0.1 µM, first compound 0.00949 µM",102%
same,"viability, T/C","second compound 0.1 µM, first compound 0.03 µM",97.6%
same,"viability, T/C","second compound 0.1 µM, first compound 0.0949 µM",102%
same,"viability, T/C","second compound 0.1 µM, first compound 0.3 µM",42.6%
same,"viability, T/C","second compound 0.316 µM, first compound 0.000949 µM",103%
same,"viability, T/C","second compound 0.316 µM, first compound 0.003 µM",110%
same,"viability, T/C","second compound 0.316 µM, first compound 0.00949 µM",111%
same,"viability, T/C","second compound 0.316 µM, first compound 0.03 µM",105%
same,"viability, T/C","second compound 0.316 µM, first compound 0.0949 µM",105%
same,"viability, T/C","second compound 0.316 µM, first compound 0.3 µM",36.3%
same,"viability, T/C","second compound 1 µM, first compound 0.000949 µM",114%
same,"viability, T/C","second compound 1 µM, first compound 0.003 µM",106%
same,"viability, T/C","second compound 1 µM, first compound 0.00949 µM",111%
same,"viability, T/C","second compound 1 µM, first compound 0.03 µM",105%
same,"viability, T/C","second compound 1 µM, first compound 0.0949 µM",97.5%
same,"viability, T/C","second compound 1 µM, first compound 0.3 µM",23.6%
NC1CCC(NC2CC2c2ccccc2)CC1 (stereo not given) + CNC(C)C(=O)NC1CN(S(=O)(=O)c2cccc(S(=O)(=O)N3CCC4CCC(C(=O)NC(c5ccccc5)c5ccccc5)N4C(=O)C(NC(=O)C(C)NC)C3)c2)CCC2CCC(C(=O)NC(c3ccccc3)c3ccccc3)N2C1=O,IC50,second compound 0.01 µM,> 0.1 µM
same,IC50,second compound 0.0316 µM,> 0.1 µM
same,IC50,second compound 0.1 µM,> 0.1 µM
same,IC50,second compound 0.316 µM,> 0.1 µM
same,IC50,second compound 1 µM,> 0.1 µM
same,"viability, T/C","second compound 0.01 µM, first compound 0.000316 µM",109%
same,"viability, T/C","second compound 0.01 µM, first compound 0.001 µM",104%
same,"viability, T/C","second compound 0.01 µM, first compound 0.00316 µM",97.4%
same,"viability, T/C","second compound 0.01 µM, first compound 0.01 µM",89.4%
same,"viability, T/C","second compound 0.01 µM, first compound 0.0316 µM",88.1%
same,"viability, T/C","second compound 0.01 µM, first compound 0.1 µM",86.2%
same,"viability, T/C","second compound 0.0316 µM, first compound 0.000316 µM",106%
same,"viability, T/C","second compound 0.0316 µM, first compound 0.001 µM",94%
same,"viability, T/C","second compound 0.0316 µM, first compound 0.00316 µM",89.7%
same,"viability, T/C","second compound 0.0316 µM, first compound 0.01 µM",85.6%
same,"viability, T/C","second compound 0.0316 µM, first compound 0.0316 µM",87.5%
same,"viability, T/C","second compound 0.0316 µM, first compound 0.1 µM",87.5%
same,"viability, T/C","second compound 0.1 µM, first compound 0.000316 µM",102%
same,"viability, T/C","second compound 0.1 µM, first compound 0.001 µM",92.5%
same,"viability, T/C","second compound 0.1 µM, first compound 0.00316 µM",86.7%
same,"viability, T/C","second compound 0.1 µM, first compound 0.01 µM",91.3%
same,"viability, T/C","second compound 0.1 µM, first compound 0.0316 µM",94.8%
same,"viability, T/C","second compound 0.1 µM, first compound 0.1 µM",91%
same,"viability, T/C","second compound 0.316 µM, first compound 0.000316 µM",99.8%
same,"viability, T/C","second compound 0.316 µM, first compound 0.001 µM",97.5%
same,"viability, T/C","second compound 0.316 µM, first compound 0.00316 µM",90.5%
same,"viability, T/C","second compound 0.316 µM, first compound 0.01 µM",90.3%
same,"viability, T/C","second compound 0.316 µM, first compound 0.0316 µM",86.6%
same,"viability, T/C","second compound 0.316 µM, first compound 0.1 µM",86.2%
same,"viability, T/C","second compound 1 µM, first compound 0.000316 µM",103%
same,"viability, T/C","second compound 1 µM, first compound 0.001 µM",99.1%
same,"viability, T/C","second compound 1 µM, first compound 0.00316 µM",91.2%
same,"viability, T/C","second compound 1 µM, first compound 0.01 µM",89.6%
same,"viability, T/C","second compound 1 µM, first compound 0.0316 µM",88.5%
same,"viability, T/C","second compound 1 µM, first compound 0.1 µM",86.4%

# Source: PubChem BioAssay AID1963432 (Molecular Pharmacology Branch, DTP, NCI, 2024)
